Reference: patent US9353104B2, “Substituted pyridizinone derivatives as PDE10 inhibitors” (priority 2013, dated 2016)

Molecular target: human PDE10A2 (Homo sapiens (Human), UniProt Q9Y233)
Assay: PDE10 fluorescence polarization (IMAP FP) inhibition assay
Assay type: biochemical
Settings: human PDE10A2 lysate, FAM-labeled cAMP 50 nM, room temperature; read-out: PDE10A Ki
Protocol: The activity of the compounds in accordance with the present invention as PDE10 inhibitors may be readily determined without undue experimentation using a fluorescence polarization (FP) methodology that is well known in the art (Huang, W., et al., J. Biomol Screen, 2002, 7: 215). […] In a typical experiment the PDE10 inhibitory activity of the compounds of the present invention was determined in accordance with the following experimental method. PDE10A2 was amplified from human fetal brain cDNA (Clontech, Mountain View, Calif.) using a forward primer corresponding to nucleotides 56-77 of human PDE10A2 (Accession No. AF127480, Genbank Identifier 4894716), containing a Kozak consensus sequence, and a reverse primer corresponding to nucleotides 2406-2413 of human PDE10A2 (Accession No. AF127480, Genbank Identifier 4894716). Amplification with Easy-A polymerase (Stratagene, La Jolla, Calif.) was 95° C. for 2 minutes followed by thirty three cycles of 95° C. for 40 seconds, 55° C. for 30 seconds, and 72° C. for 2 minutes 48 seconds. Final extension was 72° C. for 7 minutes. The PCR product was TA cloned into pcDNA3.2-TOPO (Invitrogen, Carlsbad, Calif.) according to standard protocol. AD293 cells with 70-80% confluency were transiently transfected with human PDE10A2/pcDNA3.2-TOPO using Lipofectamine 2000 according to manufacturer specifications (Invitrogen, Carlsbad, Calif.). Cells were harvested 48 hours post-transfection and lysed by sonication (setting 3, 10×5 sec pulses) in a buffer containing 20 mM HEPES, 1 mM EDTA and protease inhibitor cocktail (Roche). Lysate was collected by centrifugation at 75,000×g for 20 minutes. Supernatant containing the cytoplasmic fraction was used for evaluation of PDE10A2 activity. The fluorescence polarization assay for cyclic nucleotide phosphodiesterases was performed using an IMAP® FP kit supplied by Molecular Devices, Sunnyvale, Calif. (product #R8139). IMAP® technology has been applied previously to phosphodiesterase assays (Huang, W., et al., J. Biomol Screen, 2002, 7: 215). Assays were performed at room temperature in 384-well microtiter plates with an incubation volume of 20.2 μL. Solutions of test compounds were prepared in DMSO and serially diluted with DMSO to yield 8 μL of each of 10 solutions differing by 3-fold in concentration, at 32 serial dilutions per plate. 100% inhibition is determined using a known PDE10 inhibitor, which can be any compound that is present at 5,000 times its Ki value in the assay described as follows, such as papaverine (see Siuciak, et al. Neuropharmacology (2006) 51:386-396; Becker, et al. Behav Brain Res (2008) 186(2):155-60; Threlfell, et al., J Pharmacol Exp Ther (2009) 328(3):785-795), 2-{4-[pyridin-4-yl-1-(2,2,2-trifluoroethyl)-1H-pyrazol-3-yl]phenoxymethyl}quinoline succinic acid or 2-[4-(1-methyl-4-pyridin-4-yl-1H-pyrazol-3-yl)-phenoxymethyl]quinoline succinic acid (see Schmidt, et al. J Pharmacol Exp Ther (2008) 325:681-690; Threlfell, et al., J Pharmacol Exp Ther (2009) 328(3): 785-795). 0% of inhibition is determined by using DMSO (1% final concentrations).
A Labcyte Echo 555 (Labcyte, Sunnyvale, Calif.) is used to dispense 200 nL from each well of the titration plate to the 384 well assay plate. A solution of enzyme (1/1600 dilution from aliquots; sufficient to produce 20% substrate conversion) and a separate solution of FAM-labeled cAMP PDE from Molecular Devices (product #R7506), at a final concentration of 50 nM are made in the assay buffer (10 mM Tris HCl, pH 7.2, 10 mM MgCl2, 0.05% NaN3 0.01% Tween-20, and 1 mM DTT). The enzyme and the substrate are then added to the assay plates in two consecutive additions of 10 μL, and then shaken to mix. The reaction is allowed to proceed at room temperature for 30 minutes. A binding solution is then made from the kit components, comprised of 80% Solution A, 20% Solution B and binding reagent at a volume of 1/600 the total binding solution.

Chain of human PDE10A2 (Q9Y233 267-1055): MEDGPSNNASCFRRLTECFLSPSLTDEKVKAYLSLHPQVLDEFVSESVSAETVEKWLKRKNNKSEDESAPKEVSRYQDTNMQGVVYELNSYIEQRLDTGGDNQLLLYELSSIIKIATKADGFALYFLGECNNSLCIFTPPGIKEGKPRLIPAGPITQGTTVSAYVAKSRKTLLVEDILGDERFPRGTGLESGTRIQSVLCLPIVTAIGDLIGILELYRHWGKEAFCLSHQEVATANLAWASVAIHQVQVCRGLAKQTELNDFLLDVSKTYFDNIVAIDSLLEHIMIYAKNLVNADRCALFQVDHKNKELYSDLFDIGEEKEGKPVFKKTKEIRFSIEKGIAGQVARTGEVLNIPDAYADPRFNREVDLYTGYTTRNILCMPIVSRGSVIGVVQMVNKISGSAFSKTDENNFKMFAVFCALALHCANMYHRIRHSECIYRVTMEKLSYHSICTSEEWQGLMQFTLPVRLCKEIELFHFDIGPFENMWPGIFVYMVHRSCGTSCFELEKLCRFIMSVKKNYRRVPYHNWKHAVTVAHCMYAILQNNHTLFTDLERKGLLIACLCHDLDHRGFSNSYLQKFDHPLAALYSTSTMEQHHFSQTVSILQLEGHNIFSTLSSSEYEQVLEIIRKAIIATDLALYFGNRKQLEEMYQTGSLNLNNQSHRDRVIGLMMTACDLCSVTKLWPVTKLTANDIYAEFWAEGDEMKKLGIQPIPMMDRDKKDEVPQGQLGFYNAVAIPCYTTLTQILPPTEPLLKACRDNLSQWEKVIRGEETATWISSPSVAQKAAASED

Point of comparison: `COc1ccc([C@H]2C[C@@H]2COc2cc(NCc3cccnc3C)c(=O)n(C)n2)nc1` [Example 65, 6-(((1S,2S)-2-(5-methoxy-pyridin-2-yl)cyclopropyl-)-methoxy)-2-methyl-4-(((2-methylpyridin-3-yl)-methyl)amino)pyridazin-3(2H)-one], Ki 0.053 nM. Against it:
- Cc1ccc(CNc2cc(OC[C@H]3C[C@@H]3c3ccc4ccccc4n3)nn(C)c2=O)c(C)n1 [Example 57, 4-(((2,6-dimethylpyridin-3-yl)methyl)amino)-2-methyl-6-(((1S,2S)-2-(quinolin-2-yl)cyclopropyl)methoxy)-pyridazin-3(2H)-one] — 13-fold lower, 0.004 nM
- Cc1ccc(CNc2cc(OC[C@H]3C[C@@H]3c3ccc(OC(F)F)cn3)nn(C)c2=O)c(C)n1 [Example 58, 6-(((1S,2S)-2-(5-(difluoromethoxy)pyridin-2-yl)cyclopropyl)-methoxy)-4-(((2,6-di-methylpyridin-3-yl)-methyl)amino)-2-methyl-pyridazin-3(2H)-one] — 1.9-fold lower, 0.028 nM
- COc1ccc([C@H]2C[C@@H]2COc2cc(NCc3c(C)noc3C)c(=O)n(C)n2)nc1 [Example 59, 4-(((3,5-dimethylisoxazol-4-yl)methyl)amino)-6-(((1S,2S)-2-(5-methoxy-pyridin-2-yl)cyclopropyl-)-methoxy)-2-methyl-pyridazin-3(2H)-one] — 7.2-fold higher, 0.38 nM
- Cc1noc(C)c1CNc1cc(OC[C@H]2C[C@@H]2c2ccn(C)n2)nn(C)c1=O [Example 61, 4-(((3,5-dimethylisoxazol-4-yl)methyl)amino)-2-methyl-6-(((1S,2S)-2-(1-methyl-1H-pyrazol-3-yl)cyclopropyl)methoxy)-pyridazin-3(2H)-one] — 77-fold higher, 4.1 nM
- COc1ccc([C@H]2C[C@@H]2COc2cc(NCc3ccnc(C)c3)c(=O)n(C)n2)nc1 [Example 62, 6-(((1S,2S)-2-(5-methoxy-pyridin-2-yl)cyclopropyl-)-methoxy)-2-methyl-4-(((2-methylpyridin-4-yl)methyl)amino)pyridazin-3(2H)-one] — 2.3-fold higher, 0.122 nM
- COc1ccc([C@H]2C[C@@H]2COc2cc(NCc3cncnc3)c(=O)n(C)n2)nc1 [Example 63, 6-(((1S,2S)-2-(5-methoxy-pyridin-2-yl)cyclopropyl-)-methoxy)-2-methyl-4-((pyrimidin-5-ylmethyl)-amino)pyridazin-3(2H)one] — 32-fold higher, 1.7 nM
- COc1ccc([C@H]2C[C@@H]2COc2cc(NCc3ccc(C)nc3)c(=O)n(C)n2)nc1 [Example 64, 6-(((1S,2S)-2-(5-methoxy-pyridin-2-yl)cyclopropyl-)-methoxy)-2-methyl-4-(((6-methylpyridin-3-yl)methyl)amino)pyridazin-3(2H)-one] — 2.1-fold lower, 0.025 nM
- COc1ccc([C@H]2C[C@@H]2COc2cc(NCc3cnccn3)c(=O)n(C)n2)nc1 [Example 66, 6-(((1S,2S)-2-(5-methoxypyridin-2-yl)cyclopropyl)methoxy)-2-methyl-4-((pyrazin-2-ylmethyl)amino)pyridazin-3(2H)-one] — 110-fold higher, 5.7 nM
- COc1ccc([C@H]2C[C@@H]2COc2cc(NCc3cncc(C)c3)c(=O)n(C)n2)nc1 [Example 67, 6-(((1S,2S)-2-(5-methoxypyridin-2-yl)cyclopropyl)methoxy)-2-methyl-4-(((5-methylpyridin-3-yl)methyl)amino)pyridazin-3(2H)-one] — within 1.5-fold, 0.049 nM
- COc1ccc([C@H]2C[C@@H]2COc2cc(NCc3cccnc3)c(=O)n(C)n2)nc1 [Example 68, 6-(((1S,25)-2-(5-methoxy-pyridin-2-yl)cyclopropyl-)-methoxy)-2-methyl-4-((pyridin-3-ylmethyl)-amino)pyridazin-3(2H)one] — 220-fold higher, 11.6 nM
- COc1ccc([C@H]2C[C@@H]2COc2cc(NCc3ccc(C)c(C)n3)c(=O)n(C)n2)nc1 [Example 69, 4-(((5,6-dimethylpyridin-2-yl)methyl)amino)-6-(((1S,2S)-2-(5-methoxy-pyridin-2-yl)cyclopropyl-)-methoxy)-2-methyl-pyridazin-3(2H)-one] — 7.7-fold higher, 0.41 nM
